The target of the test is T1, human APJ receptor (Homo sapiens, UniProt P35414).
T1 construct: expressed in transfected cells; host or cells: HEK293
T1 sequence (P35414 1-380): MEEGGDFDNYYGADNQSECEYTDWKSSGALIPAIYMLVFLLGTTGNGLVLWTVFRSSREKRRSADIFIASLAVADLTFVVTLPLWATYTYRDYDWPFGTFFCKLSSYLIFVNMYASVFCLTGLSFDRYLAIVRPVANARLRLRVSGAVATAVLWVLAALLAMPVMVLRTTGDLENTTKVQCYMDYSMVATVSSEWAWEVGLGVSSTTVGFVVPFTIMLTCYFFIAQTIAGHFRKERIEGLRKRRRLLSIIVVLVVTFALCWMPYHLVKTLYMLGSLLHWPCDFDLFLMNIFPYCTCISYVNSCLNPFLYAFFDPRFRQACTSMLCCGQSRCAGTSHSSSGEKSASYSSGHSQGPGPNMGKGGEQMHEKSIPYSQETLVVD
The experiment in a line: Intracellular cAMP Accumulation Assay (APJ hcAMP, HTRF). The settings on record: human APJ, cAMP accumulation; potency range class; read-out: hAPJ cAMP EC50 Potency range. Format: cell-based. The method, boiled down: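 Stably transfected HEK293 cells (5,000/well) incubated 30 min at room temperature with serially diluted compound, […] and 2 μM forskolin. cAMP measured by HTRF after 60 min with detection reagents, quantified against a cAMP standard curve; EC50 from variable-slope sigmoidal fit of inhibition of forskolin-stimulated cAMP.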

As to `CCc1cccc(CC)c1-n1c(-c2nc(C)cs2)nc(=O)c(C(=O)N2CCC(c3ncc(Cl)cc3F)C2)c1O` (single isomer, unassigned) [Example 312, 5-[3-(5-chloro-3-fluoropyridin-2-yl)pyrrolidine-1-carbonyl]-1-(2,6-diethylphenyl)-6-hydroxy-2-(4-methyl-1,3-thiazol-2-yl)-1,4-dihydropyrimidin-4-one], the EC50 lay within 0.01 to 10 nM.

Turning to `CCc1cccc(CC)c1-n1c(-c2cnn(CC)c2)nc(=O)c(C(=O)N2CCC(c3ncc(Cl)cc3F)C2)c1O` (single isomer, unassigned) [Example 313, 5-[3-(5-chloro-3-fluoropyridin-2-yl)pyrrolidine-1-carbonyl]-1-(2,6-diethylphenyl)-2-(1-ethyl-1H-pyrazol-4-yl)-6-hydroxy-1,4-dihydropyrimidin-4-one], the EC50 is 0.01 to 10 nM.

With `CCc1cccc(CC)c1-n1c(-c2cnn(CC)c2)nc(=O)c(C(=O)N2CCC(c3ncc(F)cc3F)C2)c1O` (single isomer, unassigned) [Example 315, 1-(2,6-diethylphenyl)-5-[3-(3,5-difluoropyridin-2-yl)pyrrolidine-1-carbonyl]-2-(1-ethyl-1H-pyrazol-4-yl)-6-hydroxy-1,4-dihydropyrimidin-4-one], the EC50 lay within 0.01 to 10 nM.

Take `CCc1cccc(CC)c1-n1c(-c2ccn(CC(C)C)n2)nc(=O)c(C(=O)N2CCC(c3ccc(F)cn3)C2)c1O` (single isomer, unassigned) [Example 318, 1-(2,6-diethylphenyl)-5-[3-(5-fluoropyridin-2-yl)pyrrolidine-1-carbonyl]-6-hydroxy-2-[1-(2-methylpropyl)-1H-pyrazol-3-yl]-1,4-dihydropyrimidin-4-one]: the EC50 is 0.01 to 10 nM.

In the case of `CCc1cccc(CC)c1-n1c(-c2ccn(C3CC3)n2)nc(=O)c(C(=O)N2CCC(c3ncccc3F)C2)c1O` (single isomer, unassigned) [Example 319, 2-(1-cyclopropyl-1H-pyrazol-3-yl)-1-(2,6-diethylphenyl)-5[3(3-fluoropyridin-2-yl)pyrrolidine-1-carbonyl]-6-hydroxy-1,4-dihydropyrimidin-4-one], the EC50 is 0.01 to 10 nM.

In the case of `CCc1cccc(CC)c1-n1c(-c2ccn(CC(C)C)n2)nc(=O)c(C(=O)N2CCC(c3ncc(F)cc3F)C2)c1O` (single isomer, unassigned) [Example 320, 1-(2,6-diethylphenyl)-5-[3-(3,5-difluoropyridin-2-yl)pyrrolidine-1-carbonyl]-6-hydroxy-2-[1-(2-methylpropyl)-1H-pyrazol-3-yl]-1,4-dihydropyrimidin-4-one], the EC50 fell in the range of 10 to 100 nM.

Regarding `CC[C@@H](c1ccccc1)n1c(-c2nc(C)cs2)nc(=O)c(C(=O)N2CCC(c3ncc(F)cc3F)C2)c1O` (single isomer, unassigned) [Example 321], the EC50 was 0.01 to 10 nM.

For the compound `CC[C@@H](c1ccccc1)n1c(-c2nc(C)cs2)nc(=O)c(C(=O)N2CCC(c3ccc(F)cn3)C2)c1O` (single isomer, unassigned) [Example 322], the EC50 is 0.01 to 10 nM.

`CC[C@@H](c1ccccc1)n1c(-c2nc(C)cs2)nc(=O)c(C(=O)N2CCC(c3ncc(Cl)cc3F)C2)c1O` (single isomer, unassigned) [Example 323]: the EC50 was in the range of 0.01 to 10 nM.

`CC[C@@H](c1ccccc1)n1c(-c2nc(C)cs2)nc(=O)c(C(=O)N2CCC(c3ccccc3F)C2)c1O` (single isomer, unassigned) [Example 324]: the EC50 is 0.01 to 10 nM.

Turning to `CCc1cccc(CC)c1-n1c(-c2ccn(C3CC3)n2)nc(=O)c(C(=O)N2CCC(c3ncc(F)cc3F)C2)c1O` (single isomer, unassigned) [Example 325, 2-(1-cyclopropyl-1H-pyrazol-3-yl)-1-(2,6-diethylphenyl)-5-[3-(3,5-difluoropyridin-2-yl)pyrrolidine-1-carbonyl]-6-hydroxy-1,4-dihydropyrimidin-4-one], the EC50 fell in the range of 0.01 to 10 nM.

On to `CCn1ccc(-c2nc(=O)c(C(=O)N3CCC(c4ncc(Cl)cc4F)C3)c(O)n2[C@H](c2cc(F)cc(F)c2)C(C)C)n1` (single isomer, unassigned) [Example 326], for which the EC50 is 0.01 to 10 nM.

`CCn1ccc(-c2nc(=O)c(C(=O)N3CCC(c4ncc(F)cc4F)C3)c(O)n2[C@H](c2cc(F)cc(F)c2)C(C)C)n1` (single isomer, unassigned) [Example 327]: the EC50 was in the range of 0.01 to 10 nM.

For the compound `CCc1cccc(CC)c1-n1c(-c2ccn(C3CC3)n2)nc(=O)c(C(=O)N2CCC(c3ccc(F)cn3)C2)c1O` (single isomer, unassigned) [Example 328, 2-(1-cyclopropyl-1H-pyrazol-3-yl)-1-(2,6-diethylphenyl)-5-[3-(5-fluoropyridin-2-yl)pyrrolidine-1-carbonyl]-6-hydroxy-1,4-dihydropyrimidin-4-one], the EC50 is 0.01 to 10 nM.

`CCCCc1nc(O)c(C(=O)N2CCC(c3ncc(F)cc3F)C2)c(=O)n1[C@@H](CC)c1ccccc1` (single isomer, unassigned) [Example 345]: the EC50 lay within 0.01 to 10 nM.

`CCCCc1nc(O)c(C(=O)N2CCC(c3ncc(Cl)cc3F)C2)c(=O)n1[C@@H](COC)c1ccccc1` (single isomer, unassigned) [Example 352]: the EC50 is 0.01 to 10 nM.

In the case of `CCOCc1nc(=O)c(C(=O)N2CCC(c3c(F)cccc3F)C2)c(O)n1-c1c(OC)cccc1OC` (single isomer, unassigned) [Example 353, 5-[3-(2,6-difluorophenyl)pyrrolidine-1-carbonyl]-1-(2,6-dimethoxyphenyl)-2-(ethoxymethyl)-6-hydroxy-1,4-dihydropyrimidin-4-one], the 50% effective concentration (EC50) is 0.01 to 10 nM.

Regarding `CCOCc1nc(=O)c(C(=O)N2CCC(c3c(F)cccc3F)C2)c(O)n1-c1c(OC)cccc1OC` (single isomer, unassigned) [Example 354, 5-[3-(2,6-difluorophenyl)pyrrolidine-1-carbonyl]-1-(2,6-dimethoxyphenyl)-2-(ethoxymethyl)-6-hydroxy-1,4-dihydropyrimidin-4-one], the EC50 was 0.01 to 10 nM.

Turning to `CCCCc1nc(=O)c(C(=O)N2CCC(c3ncc(Cl)cc3F)C2)c(O)n1-c1c(OC)cccc1OC` (single isomer, unassigned) [Example 356, 2-butyl-5-(3-(5-chloro-3-fluoropyridin-2-yl)pyrrolidine-1-carbonyl)-1-(2,6-dimethoxyphenyl)-6-hydroxypyrimidin-4(1H)-one], the 50% effective concentration (EC50) lay within 0.01 to 10 nM.

As for `CCCCc1nc(=O)c(C(=O)N2CCC(c3ncc(Cl)cc3F)C2)c(O)n1-c1c(OC)cccc1OC` (single isomer, unassigned) [Example 357, 2-butyl-5-(3-(5-chloro-3-fluoropyridin-2-yl)pyrrolidine-1-carbonyl)-1-(2,6-dimethoxyphenyl)-6-hydroxypyrimidin-4(1H)-one], the EC50 was 0.01 to 10 nM.

Take `CCCCc1nc(=O)c(C(=O)N2CCC(c3ncc(F)cc3F)C2)c(O)n1-c1c(OC)cccc1OC` (single isomer, unassigned) [Example 358, 2-butyl-5-(3-(3,5-difluoropyridin-2-yl)pyrrolidine-1-carbonyl)-1-(2,6-dimethoxyphenyl)-6-hydroxypyrimidin-4(1H)-one]: the 50% effective concentration (EC50) was in the range of 0.01 to 10 nM.

`CCCCc1nc(=O)c(C(=O)N2CCC(c3ncc(F)cc3F)C2)c(O)n1-c1c(OC)cccc1OC` (single isomer, unassigned) [Example 359, 2-butyl-5-(3-(3,5-difluoropyridin-2-yl)pyrrolidine-1-carbonyl)-1-(2,6-dimethoxyphenyl)-6-hydroxypyrimidin-4(1H)-one]: the EC50 lay in the range of 0.01 to 10 nM.

For the compound `CCOCc1nc(=O)c(C(=O)N2CCC(c3ccccc3C#N)C2)c(O)n1-c1c(OC)cccc1OC` (single isomer, unassigned) [Example 362, 2-(1-(1-(2,6-dimethoxyphenyl)-2-(ethoxymethyl)-6-hydroxy-4-oxo-1,4-dihydropyrimidine-5-carbonyl)pyrrolidin-3-yl)benzonitrile], the EC50 was 0.01 to 10 nM.

For the compound `CCOCc1nc(=O)c(C(=O)N2CCC(c3ccccc3C#N)C2)c(O)n1-c1c(OC)cccc1OC` (single isomer, unassigned) [Example 363, 2-(1-(1-(2,6-dimethoxyphenyl)-2-(ethoxymethyl)-6-hydroxy-4-oxo-1,4-dihydropyrimidine-5-carbonyl)pyrrolidin-3-yl)benzonitrile], the 50% effective concentration (EC50) was 0.01 to 10 nM.

Regarding `CCCCc1nc(=O)c(C(=O)N2CCC(c3ccccc3C#N)C2)c(O)n1-c1c(OC)cccc1OC` (single isomer, unassigned) [Example 364, 2-(1-(2-butyl-1-(2,6-dimethoxyphenyl)-6-hydroxy-4-oxo-1,4-dihydropyrimidine-5-carbonyl)pyrrolidin-3-yl)benzonitrile], the EC50 lay within 0.01 to 10 nM.

On to `CCCCc1nc(=O)c(C(=O)N2CCC(c3ccccc3C#N)C2)c(O)n1-c1c(OC)cccc1OC` (single isomer, unassigned) [Example 365, 2-(1-(2-butyl-1-(2,6-dimethoxyphenyl)-6-hydroxy-4-oxo-1,4-dihydropyrimidine-5-carbonyl)pyrrolidin-3-yl)benzonitrile], for which the EC50 lay in the range of 0.01 to 10 nM.

In the case of `CCCCc1nc(=O)c(C(=O)N2CCC(c3ncccc3F)C2)c(O)n1-c1c(OC)cccc1OC` (single isomer, unassigned) [Example 366, 2-butyl-1-(2,6-dimethoxyphenyl)-5-(3-(3-fluoropyridin-2-yl)pyrrolidine-1-carbonyl)-6-hydroxypyrimidin-4(1H)-one], the EC50 fell in the range of 0.01 to 10 nM.

The record behind these values is patent US10590113B2, “6-hydroxy-4-oxo-1,4-dihydropyrimidine-5-carboxamides as APJ agonists” (priority 2016, dated 2020).
